Data set [1] deals with rats' cholinergic and oxidative systems. Briefly: Pharmacodynamic study, overall conclusions (rat amnesia model). The data set is classed as in vivo. The settings on record: conclusion from Groups 3, 6 and 7, single-component patches. The source says:
Finally, the activities/contents of AChE, SOD, GSH-Px and MDA in Groups 3-5 approximate to those in the blank control group, that is to say, the levels of oxidase in rat's cholinergic and oxidative systems in the various delivery groups are close to normal level.

The conditions of data set [2]: oral delivery; cited from earlier work.

As for `C/C=C1\[C@H]2C=C(C)C[C@]1(N)c1ccc(=O)[nH]c1C2` [huperzine A], in data set [1], the anti-oxidation effect result is reported as “certain effect of anti-oxidation” and the “function of anti-cholinergic damage” value was “certain function of anti-cholinergic damage”.

With `Cc1nc(C)c(C)nc1C.O=P(O)(O)O` [tetramethylpyrazine phosphate], in data set [1], the anti-oxidation effect result is “very strong anti-oxidation effect” and the “function of anti-cholinergic damage” value is listed as “relatively poor function of anti-cholinergic damage”. Also, in data set [2], the “half life (t½)” value is given as 2.89 h.

The values are drawn from patent US20140045858A1, “COMPOUND P[…] ALZHEIMER'S DISEASE AND PREPARATION METHOD THEREOF” (priority 2011, published 2014).
